Assay results: ChEMBL document CHEMBL2073794, “Catecholamine transport by the organic cation transporter type 1 (OCT1)” (Br J Pharmacol, 1998)

Target: T1, Solute carrier family 22 member 1 (Rattus norvegicus, UniProt Q63089)
T1 sequence (Q63089 whole entry): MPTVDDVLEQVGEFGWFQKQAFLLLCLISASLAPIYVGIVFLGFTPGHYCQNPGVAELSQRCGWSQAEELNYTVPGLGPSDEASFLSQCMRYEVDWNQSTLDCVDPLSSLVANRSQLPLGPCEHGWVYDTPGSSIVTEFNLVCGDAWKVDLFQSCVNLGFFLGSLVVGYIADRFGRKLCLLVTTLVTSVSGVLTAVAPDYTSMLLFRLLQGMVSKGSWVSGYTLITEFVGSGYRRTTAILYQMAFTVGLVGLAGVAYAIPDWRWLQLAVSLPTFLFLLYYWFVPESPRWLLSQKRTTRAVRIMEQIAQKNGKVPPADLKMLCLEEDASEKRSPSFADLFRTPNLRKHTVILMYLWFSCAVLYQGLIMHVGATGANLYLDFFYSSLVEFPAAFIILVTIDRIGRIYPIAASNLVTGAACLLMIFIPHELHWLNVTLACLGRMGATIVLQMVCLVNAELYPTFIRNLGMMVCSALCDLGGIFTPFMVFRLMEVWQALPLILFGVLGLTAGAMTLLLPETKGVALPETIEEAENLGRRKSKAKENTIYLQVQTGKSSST
Assay: TP_TRANSPORTER: uptake in OCT1-expressing HEK293 cells
Assay type: functional, cell-based
Conditions: human

Row | Activity | Compound
1 | substrate [+] | NCCc1ccc(O)c(O)c1 [DOPAMINE]
2 | substrate [+] | NC[C@H](O)c1ccc(O)c(O)c1 [NOREPINEPHRINE]
3 | substrate [+] | CNC[C@H](O)c1ccc(O)c(O)c1 [EPINEPHRINE]
4 | substrate [+] | CC[N+](CC)(CC)CC [TETRYLAMMONIUM]

Row | Compound | Activity
5 | NCCc1c[nH]c2ccc(O)cc12 [SEROTONIN] | substrate [+]
6 | NCCc1ccc(O)cc1 [TYRAMINE] | substrate [+]
